In brackets after ≈: the same amount, converted by molar mass.
Experiments:
[1] = biological target: T1, Estrogen Receptor (ERα) in MCF-7 cells (Homo sapiens (Human), UniProt P03372); test: MCF-7 ER down-regulation assay (immuno-fluorescence); type: cell-based
[2] = biological target: estrogen receptor (ERα) in CAMA-1 cells (Homo sapiens (Human), UniProt P03372); test: Western blotting assay, ER down-regulation in CAMA-1; type: cell-based; details: CAMA-1, 100 nM compound, 48 h, vs 100 nM fulvestrant
[3] = biological target: T1, Estrogen Receptor (ERα) in MCF-7 cells; test: Western blotting assay, ER down-regulation in MCF-7; type: cell-based; details: MCF-7, 100 nM compound, 48 h, vs 100 nM fulvestrant
[4] = biological target: recombinant human Estrogen Receptor alpha ligand binding domain (ER alpha-LBD (GST)) (Homo sapiens (Human), UniProt P03372); test: ERα binding assay (LanthaScreen TR-FRET competition)
[5] = Human plasma protein binding (equilibrium dialysis); type: in vitro ADME
[6] = Thermodynamic solubility (shake-flask); type: physicochemical; details: aqueous phosphate buffer, 25 °C, pH 7.4, aqueous buffer, thermodynamic from solid, phosphate buffer pH 7.4, 24 hours
[7] = Log D (shake flask, 1-octanol/aqueous buffer); type: physicochemical; details: 1-octanol/aqueous buffer, pH 7.4, pH 7.4
hERG potassium channel = hERG potassium channel (Homo sapiens (Human), UniProt Q12809)
hERG potassium channel, sequence (Q12809 whole entry): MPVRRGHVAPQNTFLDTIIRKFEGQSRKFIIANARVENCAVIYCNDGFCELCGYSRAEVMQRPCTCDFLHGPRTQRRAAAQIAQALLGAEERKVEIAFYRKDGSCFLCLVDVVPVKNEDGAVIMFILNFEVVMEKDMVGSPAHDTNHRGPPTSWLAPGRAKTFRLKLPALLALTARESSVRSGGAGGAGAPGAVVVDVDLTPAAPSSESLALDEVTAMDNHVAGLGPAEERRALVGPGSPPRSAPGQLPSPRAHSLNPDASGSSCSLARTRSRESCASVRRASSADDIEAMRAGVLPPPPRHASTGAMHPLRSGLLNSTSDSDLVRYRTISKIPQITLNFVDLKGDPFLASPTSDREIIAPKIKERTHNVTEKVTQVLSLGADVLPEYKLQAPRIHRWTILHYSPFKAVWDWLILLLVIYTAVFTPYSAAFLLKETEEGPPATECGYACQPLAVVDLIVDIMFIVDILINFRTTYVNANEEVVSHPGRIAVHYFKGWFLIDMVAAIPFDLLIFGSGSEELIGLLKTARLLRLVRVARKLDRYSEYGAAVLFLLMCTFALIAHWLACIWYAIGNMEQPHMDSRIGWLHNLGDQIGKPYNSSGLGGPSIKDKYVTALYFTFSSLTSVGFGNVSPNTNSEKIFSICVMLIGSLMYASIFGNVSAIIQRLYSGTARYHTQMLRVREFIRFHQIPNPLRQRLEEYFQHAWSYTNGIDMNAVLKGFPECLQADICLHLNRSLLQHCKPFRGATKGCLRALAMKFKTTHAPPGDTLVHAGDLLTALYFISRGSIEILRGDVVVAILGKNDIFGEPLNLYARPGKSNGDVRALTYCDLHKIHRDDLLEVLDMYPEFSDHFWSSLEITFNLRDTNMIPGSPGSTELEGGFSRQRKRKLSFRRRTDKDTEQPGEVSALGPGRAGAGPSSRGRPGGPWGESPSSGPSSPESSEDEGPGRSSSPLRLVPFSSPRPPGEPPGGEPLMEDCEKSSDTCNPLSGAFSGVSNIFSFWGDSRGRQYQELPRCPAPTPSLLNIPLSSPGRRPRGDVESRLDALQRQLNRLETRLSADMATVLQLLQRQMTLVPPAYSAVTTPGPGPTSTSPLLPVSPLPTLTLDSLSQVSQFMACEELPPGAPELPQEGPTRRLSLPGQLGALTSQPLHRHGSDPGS

recombinant human Estrogen Receptor alpha ligand binding domain (ER alpha-LBD (GST)), sequence (P03372 307-554): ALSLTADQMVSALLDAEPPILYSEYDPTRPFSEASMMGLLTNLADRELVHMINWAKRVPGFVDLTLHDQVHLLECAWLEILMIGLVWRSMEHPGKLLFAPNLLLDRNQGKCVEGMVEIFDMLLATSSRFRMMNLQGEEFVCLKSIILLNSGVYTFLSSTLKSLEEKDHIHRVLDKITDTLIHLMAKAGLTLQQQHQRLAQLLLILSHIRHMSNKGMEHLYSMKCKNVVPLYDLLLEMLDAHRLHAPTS
estrogen receptor (ERα) in CAMA-1 cells, sequence (P03372 whole entry): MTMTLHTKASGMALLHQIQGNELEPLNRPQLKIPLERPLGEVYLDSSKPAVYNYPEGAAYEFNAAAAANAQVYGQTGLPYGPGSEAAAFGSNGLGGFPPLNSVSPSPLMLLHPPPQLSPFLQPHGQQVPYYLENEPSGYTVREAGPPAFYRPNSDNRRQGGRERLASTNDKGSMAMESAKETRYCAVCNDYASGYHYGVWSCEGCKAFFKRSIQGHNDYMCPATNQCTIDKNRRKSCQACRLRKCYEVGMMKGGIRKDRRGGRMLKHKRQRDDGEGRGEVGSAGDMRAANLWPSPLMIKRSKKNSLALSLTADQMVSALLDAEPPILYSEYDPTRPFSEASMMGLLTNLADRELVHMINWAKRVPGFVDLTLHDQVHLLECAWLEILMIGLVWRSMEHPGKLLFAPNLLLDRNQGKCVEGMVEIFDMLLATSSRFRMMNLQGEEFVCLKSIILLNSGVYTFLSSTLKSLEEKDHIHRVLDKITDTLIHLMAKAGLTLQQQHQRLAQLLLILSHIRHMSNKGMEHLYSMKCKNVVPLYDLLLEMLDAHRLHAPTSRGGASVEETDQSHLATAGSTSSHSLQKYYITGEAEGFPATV
T1 sequence (P03372 whole entry): as above

Row | SMILES | IC50 [1] | CAMA1 Western % ER deg vs Fv [2] | MCF7 Western % ER deg vs Fv [3] | IC50 [4] | Human plasma protein binding (% free) [5] | solubility at 24 h [6] | logD [7] | IC50 (hERG potassium channel)
1 | C[C@@H]1Cc2c([nH]c3ccccc23)[C@@H](c2c(F)ccc(OCCNCCCF)c2F)N1CC1(F)CC1 [Example 76, N-(2-(2,4-difluoro-3-((1R,3R)-2-((1-fluorocyclopropyl)methyl)-3-methyl-2,3,4,9-tetrahydro-1H-pyrido[3,4-b]indol-1-yl)phenoxy)ethyl)-3-fluoropropan-1-amine] | 0.21 nM | 85% | 92% | 1 nM |  |  |  | 
2 | COc1ccc(NCCNCCCF)cc1[C@@H]1c2[nH]c3ccccc3c2C[C@@H](C)N1CC(F)(F)F [Example 40, N1-(3-fluoropropyl)-N2-(4-methoxy-3-((1R,3R)-3-methyl-2-(2,2,2-trifluoroethyl)-2,3,4,9-tetrahydro-1H-pyrido[3,4-b]indol-1-yl)phenyl)ethane-1,2-diamine] | 0.53 nM | 70% |  | 7.9 nM | 0.89 % free | 366 µM (≈ 180 µg/mL) | 3 | 4100 nM
3 | C[C@@H](CN1[C@H](c2c(F)cnc(OCCNCCCF)c2Cl)c2[nH]c3ccccc3c2C[C@H]1C(F)(F)F)C(=O)O [Example 142, (S)-3-((1R,3S)-1-(3-chloro-5-fluoro-2-(2-((3-fluoropropyl)amino)ethoxy)pyridin-4-yl)-3-(trifluoromethyl)-1,3,4,9-tetrahydro-2H-pyrido[3,4-b]indol-2-yl)-2-methylpropanoic acid] | 0.95 nM | 80% | 85% | 1.5 nM |  |  |  | 
4 | C[C@@H]1Cc2c([nH]c3ccccc23)[C@@H](c2c(F)ccc(OCCNCCCF)c2F)N1CC(F)(F)F [Example 9, N-(2-(2,4-difluoro-3-((1R,3R)-3-methyl-2-(2,2,2-trifluoroethyl)-2,3,4,9-tetrahydro-1H-pyrido[3,4-b]indol-1-yl)phenoxy)ethyl)-3-fluoropropan-1-amine] | 0.088 nM | 101% | 97% | 1.2 nM |  |  |  | 
5 | Cc1c(OCCN(C)CCCF)ccc(F)c1[C@@H]1c2[nH]c3ccccc3c2C[C@@H](C)N1C[C@H](C)C(=O)O [Example 143, (S)-3-((1R,3R)-1-(6-fluoro-3-(2-((3-fluoropropyl)(methyl)amino)ethoxy)-2-methylphenyl)-3-methyl-1,3,4,9-tetrahydro-2H-pyrido[3,4-b]indol-2-yl)-2-methylpropanoic acid] |  | 71% | 87% |  |  |  |  | 
6 | Cc1c(OCCNCCCF)ccc(F)c1[C@@H]1c2[nH]c3ccccc3c2C[C@@H](C)N1C[C@H](C)C(=O)O [Example 55, (S)-3-((1R,3R)-1-(6-fluoro-3-(2-((3-fluoropropyl)amino)ethoxy)-2-methylphenyl)-3-methyl-1,3,4,9-tetrahydro-2H-pyrido[3,4-b]indol-2-yl)-2-methylpropanoic acid] |  | 94% | 89% |  |  |  |  | 
7 | C[C@@H]1Cc2c([nH]c3ccccc23)[C@@H](c2c(F)ccc(OCCNCCCF)c2F)N1CC(F)(F)CO [Example 14, 3-((1R,3R)-1-(2,6-difluoro-3-(2-((3-fluoropropyl)amino)ethoxy)phenyl)-3-methyl-1,3,4,9-tetrahydro-2H-pyrido[3,4-b]indol-2-yl)-2,2-difluoropropan-1-ol] |  | 95% | 95% |  |  |  |  | 
8 | C[C@@H]1Cc2c([nH]c3ccccc23)[C@@H](c2cc(OCCNCCCF)ccc2F)N1CC(F)(F)F [Example 10, 3-fluoro-N-(2-(4-fluoro-3-((1R,3R)-3-methyl-2-(2,2,2-trifluoroethyl)-2,3,4,9-tetrahydro-1H-pyrido[3,4-b]indol-1-yl)phenoxy)ethyl)propan-1-amine] |  | 101% | 94% |  |  |  |  | 
